The source of these data is US11130960B2, “Methods for conferring or enhancing herbicide resistance on plants and/or alga with protoporphyrinogen oxidase variants” (FARM HANNONG CO., LTD., priority 2014, dated 2021).

The test system of the assay is CyPPO8. Description: Growth inhibition of transformed PPO-deficient E. coli BT3(ΔPPO) on LB agar medium. Particulars: 37° C., 16~20 hours. It is filed as cell-based, Halothece sp. PCC 7418. An excerpt:
To test herbicide resistance of CyPPO2, CyPPO4, CyPPO8 and CyPPO12 isolated in Example 1, PPO-deficient BT3 E. coli [hereinafter, referred to as BT3(ΔPPO)] was transformed with CyPPO2, CyPPO4, CyPPO8 or CyPPO12 gene, respectively and then cultured in the presence of herbicides to examine growth inhibition of the transformed E. coli. As a negative control, Arabidopsis thaliana-derived wild-type PPO (wild-type AtPPO1) was used, and wild-type AtPPO1 has sensitivity to PPO-based herbicides and its sequence information is available in GeneBank accession no. AX084732 (a nucleotide sequence of the gene is represented by SEQ ID NO: 10, and an amino acid sequence thereof is represented by SEQ ID NO: 9). As a positive control, Mutant AtPPO1 was used, in which amino acid replacements of Y426M (replacement of tyrosine by methionine at position 426) and S305L (replacement of serine by leucine at position 305) occur in the amino acid sequence of the wild-type AtPPO1 (an amino acid sequence is represented by SEQ ID NO: 11) (Li X, Volrath S L., N D B. G., Chilcott C E, Johnson M A, Ward E R, Law M D (2003) Development of protoporphyrinogen oxidase as an efficient selection marker for Agrobacterium tumefaciens-mediated transformation of maize. Plant physiology 133:736-747).
BT3(ΔPPO) strain was provided by Hokkaido University (Japan) and it is an E. coli strain which is deficient in hemG-type PPO and has Kanamycin resistance (Watanabe et al., (2001) Dual targeting of spinach protoporphyrinogen oxidase II to mitochondria and chloroplasts by alternative use of two in-frame […] codons. JBC 2047420481).
HVE-50 autoclave from Hirayama, HS2100A electronic scale from Hansung Instrument, CB-30V clean bench from Jeio Tech, JSI-200CL incubator from JSR, 1210 type UV-visible spectrophotometer from Thermo Fisher Scientific, MQ-200 photometer from Apogee, and Bio-Rad MyCycler as PCR machine were used. The autoclave was used under conditions of 121° C. and 15 minutes, and the incubator was used at 37° C. with lighting of 160˜200 μmol m^−2 s^−1 for a culture time of 14˜20 hours. LB medium (10 g/L of Bacto-Tryptone, 5 g/L of Yeast extract, 10 g/L of sodium chloride, 15 g/L of Bacto agar) and an antibiotic Chloramphenicol (Duchefa) were used.
To clone each of the CyPPO2, CyPPO4, CyPPO8 and CyPPO12 genes isolated and amplified in Example 1 into pACBB (its structure is shown in FIG. 2), 10 μl of a solution containing 4 μl of each PPO gene, […], 1 μl of 10× buffer A, 1 μl of 10× buffer B, 1 μl of ligase (RBC, 3 unit/μl) was prepared and allowed to react at 22° C. for 30 minutes. The reaction solution was added to 100 μl of DH5 alpha competent cells, and allowed to react on ice for 20 minutes and then left at 42° C. for 40 seconds. Thereafter, the cells were left on ice for 2 minutes, and then 1 ml of LB broth was added thereto, followed by incubation with shaking at 37° C. for 1 hour. The strains having each gene insert in the culture medium were harvested, and then cultured on LB agar medium containing chloramphenicol.
For seed culture of E. coli transformed with respective genes, single colonies thereof were cultured in 3 ml of LB broth containing chloramphenicol overnight, and each 100 μl thereof was sub-cultured in 3 ml of fresh LB broth until absorbance (OD600) reached 0.5˜1. They were diluted with LB broth to absorbance (OD600) of 0.5. 10-fold dilution of this diluted solution was performed with LB broth five times. Next, 10 μl of the diluted solution of the transformed E. coli culture was dropped on LB agar medium (petri dish) containing chloramphenicol and a variety of herbicide stocks at different concentrations (0˜400 μM). The LB agar plates were incubated at 37° C. At 16˜20 hours after culture, growth inhibition was examined with the naked eye. Further, growth inhibition of the strains cultured in a medium containing Tiafenacil was examined under light (lighting of 169 μmol m^−2s^−1) and dark conditions.
For `O=C(O)c1cc(Oc2ccc(C(F)(F)F)cc2Cl)ccc1[N+](=O)[O-]` [Acifluorfen], the “concentration at which growth inhibition was hardly observed” value came out at 400 µM.
Next, `C=CCOC(=O)C(C)(C)OC(=O)c1cc(-n2c(=O)cc(C(F)(F)F)n(C)c2=O)ccc1Cl` [Butafenacil]: 25 µM; `C#CCN1C(=O)COc2cc(F)c(N3C(=O)C4=C(CCCC4)C3=O)cc21` [Flumioxazin]: 25 µM; `COC(=O)CSc1cc(/N=c2\sc(=O)n3n2CCCC3)c(F)cc1Cl` [Fluthiacet-methyl]: 400 µM.
Next, `CS(=O)(=O)NC(=O)c1cc(Oc2ccc(C(F)(F)F)cc2Cl)ccc1[N+](=O)[O-]` [Fomesafen]: 400 µM; `CC(C)Oc1cc(-n2nc(C(C)(C)C)oc2=O)c(Cl)cc1Cl` [Oxadiazon]: 400 µM; `CCOc1cc(Oc2ccc(C(F)(F)F)cc2Cl)ccc1[N+](=O)[O-]` [Oxyfluorfen]: 400 µM.
Turning to `CC(C)=C1OC(=O)N(c2cc(OC3CCCC3)c(Cl)cc2F)C1=O` [Pentoxazone], the “concentration at which growth inhibition was hardly observed” value was 400 µM.
The same measure for `C#CCN(C)c1c(C#N)cnn1-c1nn2c(c1Cl)CCCC2` [Pyraclonil]: 400 µM; for `CCOC(=O)COc1cc(-c2nn(C)c(OC(F)F)c2Cl)c(F)cc1Cl` [Pyraflufen-ethyl]: 400 µM.
Next, `CC(C)N(C)S(=O)(=O)NC(=O)c1cc(-n2c(=O)cc(C(F)(F)F)n(C)c2=O)c(F)cc1Cl` [Saflufenacil]: 25 µM.
Next, `Cc1nn(-c2cc(NS(C)(=O)=O)c(Cl)cc2Cl)c(=O)n1C(F)F` [Sulfentrazone]: 400 µM; `COC(=O)CCNC(=O)C(C)Sc1cc(-n2c(=O)cc(C(F)(F)F)n(C)c2=O)c(F)cc1Cl` (stereo not shown) [Tiafenacil]: 25 µM.
